For assay [1], the system named is Desulfovibrio alaskensis 14563. Briefly: MBEC biofilm efficacy, Log (Growth) by enumeration. The class given is cell-based. The conditions noted are these: for Log (Growth): biofilm; for efficacy in controlling biofilm formation (in words): tested individually, standard temperature and pressure. How it is done:
(§1) Strains of commonly found bacteria were used for testing the efficacy of the compounds, viz. Desulfovibrio alaskensis and Desulfovibrio vulgaris. Media for the cultures was also prepared by using a standard method. The cultures were aseptically used and incubated under anaerobic conditions. They were plated with an MBEC (minimal biofilm eradication concentration) lid, to allow for biofilm growth. […] Then the plates were rinsed, sonicated and enumerated. These enumerations were grown for 5-days for the readings.
(§2) A lyophilized Desulfovibrio alaskensis 14563, Desulfovibrio vulgaris 29579 pure cultures received from ATCC were resuspended individually in 500 ul of MB 1250. Aseptically, the content was transferred to a 5-mL tube of MB1250 medium. The cultures were incubated in an anaerobic chamber at 30° C. for 72 hrs. Subsequently, an individual stock culture with a final concentration of 25% glycerol were prepared by adding equal volumes of culture and 50% glycerol. 1 ml of the cultures were then transferred to 2-ml cryogenic vials and stored at −80° C. The purity of the stock cultures was evaluated through PCR, by amplifying the 16S rDNA region, and thus, it was verified that the original ATCC sample was a pure culture.
(§3) 48-hour cultures of ATCC Desulfovibrio alaskensis 14563 and Desulfovibrio vulgaris 29579 were prepared in an anaerobic chamber. Each culture was prepared as a 1:10 culture by taking 1 milliliter (mL) of a pure culture and inoculating 9 milliliters (mL) of fresh SRB2-LA media. Prepared cultures were incubated at 30° C. and further diluted 1:100 in SRB2-LA media after incubation. They were grown for another 24 hours then diluted 1:10. The 1:10 dilution was plated with an MBEC (minimal biofilm eradication concentration) lid, which would allow for biofilm growth.
(§4) Treatment plates were prepared by adding 180 μL of fresh phosphate buffer amended with 10% SRB2-LA media to each well. These wells were then dosed with the compounds of interest with a ppm range of 200 to 1 PPM. Edge wells were not used due to their inherent variability and evaporation of the media. Each experiment was done with at least three replicates for different treatments and non-treatment controls. After incubation of the MBEC plate, the MBEC lid was removed and added to a rinse plate containing phosphate buffer and 10% SRB2-LA. The lid was rinsed for 30 seconds then added to the treatment plate. The MBEC lids had 6 hours to 3 days of exposure time. After targeted exposure time, the plates were rinsed, sonicated, and enumerated. The rinse was done for 30 seconds in 10% SRB2-LA with phosphate buffer. Following the rinse, the lid was added to a plate with the same media and buffer mix and the plate was sonicated for 5 minutes. After five minutes, the lid was discarded, and each row of the plate was enumerated. These enumerations were grown for 5 days before being read.

In assay [2] the test system is Desulfovibrio vulgaris 29579. The assay can be described thus: MBEC biofilm efficacy, Log (Growth) by enumeration. Format: cell-based. The conditions noted are these: testing time 2 days. How it is done: as §1, §2, §3, §4

“Also recorded” adds a separate entry of the source.

In the case of `O=C(CCCN1C(=O)c2cccc3cccc(c23)C1=O)NO` [Compound C12], the “Log (Growth)” value turned out to be 1 in assay [1] (testing time 2 days, 5 PPM); 0 in assay [1] (testing time 2 days, 25 PPM); 1 in assay [1] (testing time 2 days, 50 PPM); 0.3 in assay [1] (testing time 2 days, 100 PPM); 0 in assay [1] (testing time 2 days, 200 PPM). The “efficacy in controlling biofilm formation (in words)” value (from here on “efficacy”) in assay [1] was “significant activity in controlling biofilms; also recorded: exhibited efficacy”.

Take `O=C(CN1C(=O)c2cccc3cccc(c23)C1=O)NO` [Compound C1]: the “Log (Growth)” value in assay [2] (5 PPM) worked out at 4; in assay [2] (25 PPM), 1; in assay [2] (50 PPM) it was 1; in assay [2] (100 PPM), 0; in assay [2] (200 PPM), 1; in assay [1] (testing time 6 hours, 1 PPM), 4. The “Log (Growth)” value in assay [1] (testing time 6 hours, 5 PPM) is reported as 2; in assay [1] (testing time 6 hours, 10 PPM) it was 1; in assay [1] (testing time 6 hours, 25 PPM), 1; in assay [1] (testing time 6 hours, 50 PPM) it was 1; in assay [1] (testing time 18 hours, 1 PPM), 1; in assay [1] (testing time 18 hours, 5 PPM), 0. For the same compound, the “Log (Growth)” value is on record as 0 in assay [1] (testing time 18 hours, 10 PPM); 0 in assay [1] (testing time 18 hours, 25 PPM); 0 in assay [1] (testing time 18 hours, 50 PPM); 0 in assay [1] (testing time 2 days, 1 PPM); 0 in assay [1] (testing time 2 days, 2.5 PPM); 0 in assay [1] (testing time 2 days, 10 PPM). For the same compound, the “Log (Growth)” value in assay [1] (testing time 2 days, 15 PPM) amounted to 0; in assay [1] (testing time 2 days, 20 PPM) it was 0; in assay [1] (testing time 2 days, 25 PPM) it was 0; in assay [1] (testing time 2 days, 40 PPM), 0; in assay [1] (testing time 2 days, 50 PPM), 0; in assay [1] (testing time 3 days, 50 PPM) it was 0. In addition, the “Log (Growth)” value in assay [1] (testing time 3 days, 100 PPM) is 0; in assay [1] (testing time 3 days, 200 PPM), 0. Besides, the “killing of the microorganism strain Desulfovibrio alaskensis (in words)” value in assay [1] (comparative testing against two commercial products, metabolic inhibition) is “completely killing”. In addition, the “efficacy” value in assay [1] is “significant activity in controlling biofilms; also recorded: highest efficacy”.

With `CCCCCCCC(=O)NO` [Compound C16], the “Log (Growth)” value in assay [1] (testing time 2 days, 5 PPM) came to 5; in assay [1] (testing time 2 days, 25 PPM), 5; in assay [1] (testing time 2 days, 50 PPM), 3; in assay [1] (testing time 2 days, 100 PPM), 1; in assay [1] (testing time 2 days, 200 PPM), 0. The “efficacy” value in assay [1] is listed as “significant activity in controlling biofilms; also recorded: exhibited efficacy”.

The values are drawn from patent US20240224999A1, “METABOLIC INHIBITORS FOR CONTROLLING BIOFILM” (MC (US) 3 LLC, priority 2021, published 2024).
